Results as given in patent US20250353891A1 (MEDIMMUNE LIMITED, priority 2022, published 2025).
Starred links: 1 amine or outer side, 2 acyl side, 3 side chain; linkers in the order of their positions; H or OH if unused. Non-standard residues stand in square brackets, D forms with d. Residues, ends and D or L forms follow the SMILES beside them. Groups on a side chain read outwards from the residue. *: point of attachment. C20 diacid = O=C(O)CCCCCCCCCCCCCCCCCCC(=O)*; C18 diacid = O=C(O)CCCCCCCCCCCCCCCCC(=O)*; γGlu = O=C(O)[C@H](CCC(=O)[*:2])N[*:1]; αMeF = C[C@](N)(Cc1ccccc1)C(=O)O; AEEA = NCCOCCOCC(=O)O; Aib = CC(C)(N)C(=O)O

Experiments:
[1] = molecular target: human GLP-1 receptor (hGLP-1R) (Homo sapiens, UniProt P43220); experiment: cAMP production (HTRF) in CHO cells expressing hGLP-1R; assay type: cell-based; set-up: expressed in transfected cells; details: for EC50: Table 6, peptides modified at position 17, cAMP in CHO hGLP-1R cells, geometric mean, read-out: hGLP-1R EC50; for % Relative Potency Ratio: Table 6, % GLP-1R activity relative to GLP-1 / % GlucR activity relative to glucagon
Method in brief: (§1)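 Read-out: HTRF cAMP (anti-cAMP cryptate donor, cAMP-d2 acceptor in conjugate/lysis buffer), converted to % Delta F and fitted by 4-parameter logistic for EC50. Cell densities were 1×10^5 cells/mL (hGLP-1R) or 2×10^5 cells/mL (hGCGR). Stimulation lasted 30 min at room temperature.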

[2] = molecular target: human glucagon receptor (hGCGR) (Homo sapiens, UniProt P47871); experiment: cAMP production (HTRF) in CHO cells expressing hGCGR; assay type: cell-based; set-up: expressed in transfected cells; details: Table 6, peptides modified at position 17; cAMP in CHO hGCGR cells; geometric mean; read-out: hGluc-R EC50
Method in brief: as §1

human GLP-1 receptor (hGLP-1R), sequence (P43220 24-463): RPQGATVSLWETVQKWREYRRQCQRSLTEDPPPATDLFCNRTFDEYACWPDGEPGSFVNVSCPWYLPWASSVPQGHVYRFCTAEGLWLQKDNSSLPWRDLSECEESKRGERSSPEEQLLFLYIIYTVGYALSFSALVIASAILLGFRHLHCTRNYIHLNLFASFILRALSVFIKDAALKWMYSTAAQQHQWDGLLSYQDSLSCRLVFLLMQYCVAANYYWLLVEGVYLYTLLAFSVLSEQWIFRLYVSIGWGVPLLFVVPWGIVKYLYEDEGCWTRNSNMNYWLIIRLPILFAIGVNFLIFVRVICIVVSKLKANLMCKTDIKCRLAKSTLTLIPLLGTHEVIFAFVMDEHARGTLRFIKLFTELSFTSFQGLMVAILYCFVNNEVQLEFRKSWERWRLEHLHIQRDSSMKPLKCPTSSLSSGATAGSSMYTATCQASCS
human glucagon receptor (hGCGR), sequence (P47871 26-477): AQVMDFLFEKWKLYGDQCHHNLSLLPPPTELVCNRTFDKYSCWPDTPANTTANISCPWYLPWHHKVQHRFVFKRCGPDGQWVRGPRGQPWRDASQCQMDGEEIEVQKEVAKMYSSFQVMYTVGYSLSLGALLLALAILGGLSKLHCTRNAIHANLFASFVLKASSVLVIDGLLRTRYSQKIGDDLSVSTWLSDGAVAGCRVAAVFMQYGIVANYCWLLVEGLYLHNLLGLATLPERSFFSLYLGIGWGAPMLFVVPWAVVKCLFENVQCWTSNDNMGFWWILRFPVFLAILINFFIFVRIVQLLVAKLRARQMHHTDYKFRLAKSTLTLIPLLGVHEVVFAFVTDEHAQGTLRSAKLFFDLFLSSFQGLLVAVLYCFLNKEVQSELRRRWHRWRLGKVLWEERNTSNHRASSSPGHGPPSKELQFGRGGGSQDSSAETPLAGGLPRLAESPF

EC50 [1] [nM] | % Relative Potency Ratio [1] | EC50 [2] [nM] | SMILES
0.0736 | 6.2 | 0.232 | CC(C)C[C@H](NC(=O)[C@H](Cc1c[nH]c2ccccc12)NC(=O)[C@H](CCCNC(=N)N)NC(=O)[C@@H](NC(=O)[C@H](Cc1ccccc1)NC(=O)[C@H](CC(=O)O)NC(=O)[C@H](CCCNC(=N)N)NC(=O)[C@H](C)NC(=O)[C@H](CCCNC(=N)N)NC(=O)[C@H](CCCCNC(=O)COCCOCCNC(=O)COCCOCCNC(=O)CC[C@H](NC(=O)CCCCCCCCCCCCCCCCC(=O)O)C(=O)O)NC(=O)[C@@H](NC(=O)[C@H](CC(=O)O)NC(=O)[C@H](CC(C)C)NC(=O)[C@](C)(Cc1ccccc1)NC(=O)[C@H](CCCCN)NC(=O)[C@H](CO)NC(=O)[C@@H](NC(=O)[C@H](CC(=O)O)NC(=O)[C@H](CO)NC(=O)[C@@H](NC(=O)[C@H](Cc1ccccc1)NC(=O)[C@@H](NC(=O)CNC(=O)[C@H](CCC(N)=O)NC(=O)C(C)(C)NC(=O)[C@@H](N)Cc1c[nH]cn1)[C@@H](C)O)[C@@H](C)O)C(C)C)[C@@H](C)O)C(C)C)C(=O)N[C@@H](CC(C)C)C(=O)NC(C)(C)C(=O)N[C@H](C(=O)N[C@@H](CCC(=O)O)C(=O)O)[C@@H](C)O [Peptide 491] (H-H[Aib]QGTFTSDVSK[αMeF]LDTK([AEEA-AEEA-γGlu-C18 diacid])RARDFVRWLL[Aib]TE-OH; N-terminus assumed)
0.212 | 3.5 | 0.374 | CC(C)C[C@H](NC(=O)[C@H](Cc1c[nH]c2ccccc12)NC(=O)[C@H](CCCNC(=N)N)NC(=O)[C@@H](NC(=O)[C@H](Cc1ccccc1)NC(=O)[C@H](CC(=O)O)NC(=O)[C@H](CCCNC(=N)N)NC(=O)[C@H](C)NC(=O)[C@H](CCCNC(=N)N)NC(=O)[C@H](CCCCNC(=O)COCCOCCNC(=O)COCCOCCNC(=O)CC[C@H](NC(=O)CCCCCCCCCCCCCCCCCCC(=O)O)C(=O)O)NC(=O)[C@@H](NC(=O)[C@H](CC(=O)O)NC(=O)[C@H](CC(C)C)NC(=O)[C@](C)(Cc1ccccc1)NC(=O)[C@H](CCCCN)NC(=O)[C@H](CO)NC(=O)[C@@H](NC(=O)[C@H](CC(=O)O)NC(=O)[C@H](CO)NC(=O)[C@@H](NC(=O)[C@H](Cc1ccccc1)NC(=O)[C@@H](NC(=O)CNC(=O)[C@H](CCC(N)=O)NC(=O)C(C)(C)NC(=O)[C@@H](N)Cc1c[nH]cn1)[C@@H](C)O)[C@@H](C)O)C(C)C)[C@@H](C)O)C(C)C)C(=O)N[C@@H](CC(C)C)C(=O)NC(C)(C)C(=O)N[C@H](C(=O)N[C@@H](CCC(=O)O)C(=O)O)[C@@H](C)O [Peptide 492] (H-H[Aib]QGTFTSDVSK[αMeF]LDTK([AEEA-AEEA-γGlu-C20 diacid])RARDFVRWLL[Aib]TE-OH; N-terminus assumed)
0.0235 | 14.0 | 0.166 | CC(C)C[C@H](NC(=O)[C@H](Cc1c[nH]c2ccccc12)NC(=O)[C@H](CCCNC(=N)N)NC(=O)[C@@H](NC(=O)[C@H](Cc1ccccc1)NC(=O)[C@H](CC(=O)O)NC(=O)[C@H](CCC(N)=O)NC(=O)[C@H](C)NC(=O)[C@H](CCCNC(=N)N)NC(=O)[C@H](CCCCNC(=O)COCCOCCNC(=O)COCCOCCNC(=O)CC[C@H](NC(=O)CCCCCCCCCCCCCCCCC(=O)O)C(=O)O)NC(=O)[C@@H](NC(=O)[C@H](CC(=O)O)NC(=O)[C@H](CC(C)C)NC(=O)[C@](C)(Cc1ccccc1)NC(=O)[C@H](CCCCN)NC(=O)[C@H](CO)NC(=O)[C@@H](NC(=O)[C@H](CC(=O)O)NC(=O)[C@H](CO)NC(=O)[C@@H](NC(=O)[C@H](Cc1ccccc1)NC(=O)[C@@H](NC(=O)CNC(=O)[C@H](CCC(N)=O)NC(=O)C(C)(C)NC(=O)[C@@H](N)Cc1c[nH]cn1)[C@@H](C)O)[C@@H](C)O)C(C)C)[C@@H](C)O)C(C)C)C(=O)N[C@@H](CC(C)C)C(=O)N[C@@H](CCCNC(=N)N)C(=O)NC(C)(C)C(=O)N[C@@H](CCCCN)C(=O)O [Peptide 493] (H-H[Aib]QGTFTSDVSK[αMeF]LDTK([AEEA-AEEA-γGlu-C18 diacid])RAQDFVRWLLR[Aib]K-OH; N-terminus assumed)
0.0987 | 4.3 | 0.212 | CC(C)C[C@H](NC(=O)[C@H](Cc1c[nH]c2ccccc12)NC(=O)[C@H](CCCNC(=N)N)NC(=O)[C@@H](NC(=O)[C@H](Cc1ccccc1)NC(=O)[C@H](CC(=O)O)NC(=O)[C@H](CCC(N)=O)NC(=O)[C@H](C)NC(=O)[C@H](CCCNC(=N)N)NC(=O)[C@H](CCCCNC(=O)COCCOCCNC(=O)COCCOCCNC(=O)CC[C@H](NC(=O)CCCCCCCCCCCCCCCCCCC(=O)O)C(=O)O)NC(=O)[C@@H](NC(=O)[C@H](CC(=O)O)NC(=O)[C@H](CC(C)C)NC(=O)[C@](C)(Cc1ccccc1)NC(=O)[C@H](CCCCN)NC(=O)[C@H](CO)NC(=O)[C@@H](NC(=O)[C@H](CC(=O)O)NC(=O)[C@H](CO)NC(=O)[C@@H](NC(=O)[C@H](Cc1ccccc1)NC(=O)[C@@H](NC(=O)CNC(=O)[C@H](CCC(N)=O)NC(=O)C(C)(C)NC(=O)[C@@H](N)Cc1c[nH]cn1)[C@@H](C)O)[C@@H](C)O)C(C)C)[C@@H](C)O)C(C)C)C(=O)N[C@@H](CC(C)C)C(=O)N[C@@H](CCCNC(=N)N)C(=O)NC(C)(C)C(=O)N[C@@H](CCCCN)C(=O)O [Peptide 494]
0.0232 | 32.4 | 0.38 | CC(C)C[C@H](NC(=O)[C@H](Cc1c[nH]c2ccccc12)NC(=O)[C@H](CCCNC(=N)N)NC(=O)[C@@H](NC(=O)[C@H](Cc1ccccc1)NC(=O)[C@H](CC(=O)O)NC(=O)[C@H](CCC(N)=O)NC(=O)[C@H](C)NC(=O)[C@H](CCCNC(=N)N)NC(=O)[C@H](CCCCNC(=O)COCCOCCNC(=O)COCCOCCNC(=O)CC[C@H](NC(=O)CCCCCCCCCCCCCCCCC(=O)O)C(=O)O)NC(=O)[C@@H](NC(=O)[C@H](CC(=O)O)NC(=O)[C@H](CC(C)C)NC(=O)[C@](C)(Cc1ccccc1)NC(=O)[C@H](CCCCN)NC(=O)[C@H](CO)NC(=O)[C@@H](NC(=O)[C@H](CC(=O)O)NC(=O)[C@H](CO)NC(=O)[C@@H](NC(=O)[C@H](Cc1ccccc1)NC(=O)[C@@H](NC(=O)CNC(=O)[C@H](CCC(N)=O)NC(=O)C(C)(C)NC(=O)[C@@H](N)Cc1c[nH]cn1)[C@@H](C)O)[C@@H](C)O)C(C)C)[C@@H](C)O)C(C)C)C(=O)N[C@@H](CC(C)C)C(=O)N[C@@H](CCCNC(=N)N)C(=O)NC(C)(C)C(=O)N[C@@H](CCCCN)C(N)=O [Peptide 495] (H-H[Aib]QGTFTSDVSK[αMeF]LDTK([AEEA-AEEA-γGlu-C18 diacid])RAQDFVRWLLR[Aib]K-NH2; N-terminus assumed)
0.0649 | 14.7 | 0.482 | CC(C)C[C@H](NC(=O)[C@H](Cc1c[nH]c2ccccc12)NC(=O)[C@H](CCCNC(=N)N)NC(=O)[C@@H](NC(=O)[C@H](Cc1ccccc1)NC(=O)[C@H](CC(=O)O)NC(=O)[C@H](CCC(N)=O)NC(=O)[C@H](C)NC(=O)[C@H](CCCNC(=N)N)NC(=O)[C@H](CCCCNC(=O)COCCOCCNC(=O)COCCOCCNC(=O)CC[C@H](NC(=O)CCCCCCCCCCCCCCCCCCC(=O)O)C(=O)O)NC(=O)[C@@H](NC(=O)[C@H](CC(=O)O)NC(=O)[C@H](CC(C)C)NC(=O)[C@](C)(Cc1ccccc1)NC(=O)[C@H](CCCCN)NC(=O)[C@H](CO)NC(=O)[C@@H](NC(=O)[C@H](CC(=O)O)NC(=O)[C@H](CO)NC(=O)[C@@H](NC(=O)[C@H](Cc1ccccc1)NC(=O)[C@@H](NC(=O)CNC(=O)[C@H](CCC(N)=O)NC(=O)C(C)(C)NC(=O)[C@@H](N)Cc1c[nH]cn1)[C@@H](C)O)[C@@H](C)O)C(C)C)[C@@H](C)O)C(C)C)C(=O)N[C@@H](CC(C)C)C(=O)N[C@@H](CCCNC(=N)N)C(=O)NC(C)(C)C(=O)N[C@@H](CCCCN)C(N)=O [Peptide 496] (H-H[Aib]QGTFTSDVSK[αMeF]LDTK([AEEA-AEEA-γGlu-C20 diacid])RAQDFVRWLLR[Aib]K-NH2; N-terminus assumed)
0.0374 | 6.3 | 0.118 | CC(C)C[C@H](NC(=O)[C@H](Cc1c[nH]c2ccccc12)NC(=O)[C@H](CCCNC(=N)N)NC(=O)[C@@H](NC(=O)[C@H](Cc1ccccc1)NC(=O)[C@H](CC(=O)O)NC(=O)[C@H](CCC(N)=O)NC(=O)[C@H](C)NC(=O)[C@H](CCCNC(=N)N)NC(=O)[C@H](CCCCNC(=O)COCCOCCNC(=O)COCCOCCNC(=O)CC[C@H](NC(=O)CCCCCCCCCCCCCCCCC(=O)O)C(=O)O)NC(=O)[C@@H](NC(=O)[C@H](CC(=O)O)NC(=O)[C@H](CC(C)C)NC(=O)[C@](C)(Cc1ccccc1)NC(=O)[C@H](CCCCN)NC(=O)[C@H](CO)NC(=O)[C@@H](NC(=O)[C@H](CC(=O)O)NC(=O)[C@H](CO)NC(=O)[C@@H](NC(=O)[C@H](Cc1ccccc1)NC(=O)[C@@H](NC(=O)CNC(=O)[C@H](CCC(N)=O)NC(=O)C(C)(C)NC(=O)[C@@H](N)Cc1c[nH]cn1)[C@@H](C)O)[C@@H](C)O)C(C)C)[C@@H](C)O)C(C)C)C(=O)N[C@@H](CC(C)C)C(=O)N[C@@H](CCCNC(=N)N)C(=O)NC(C)(C)C(=O)N[C@@H](C)C(=O)O [Peptide 497] (H-H[Aib]QGTFTSDVSK[αMeF]LDTK([AEEA-AEEA-γGlu-C18 diacid])RAQDFVRWLLR[Aib]A-OH)
